The subject of test [1] is phosphorylation of eIF4E at ser209 in MV4.11 cell line. Put plainly: MNK cellular activity phospho-eIF4E detection assay (Alphascreen Surefire). In kind it is cell-based. The conditions noted are these: Homo sapiens; MV4.11 cell line, phospho-eIF4E (ser209) Alphascreen Surefire; read-out: P(IC50) elF4E (converted). The procedure: The assay detection is based on the formation of sandwich antibody complexes coupled to donor and acceptor beads. Excitation at 680 nm causes the transfer of a singlet oxygen species between donor and acceptor beads when they are in close proximity by binding to the analyte ([…]), which results in the emission of light at 520-620 nm.
Cells were then lysed and the Alphascreen Surefire protocol followed according to manufacturer's recommendations. 8 ul Acceptor beads (1:50 dilution in kit activation buffer) was added to lysate, shaken 150 rpm for 2 min and incubated for 1.5 hr at room temperature. 3 ul Donor beads (1:20 dilution in kit dilution buffer) were then added, shaken 150 rpm for 2 min and incubated for a further 1.5 hr at room temperature after which the plates were read on Pherastar FS using Alphascreen optic module.
Data were normalised relative to untreated DMSO only controls and curves repeated in duplicate within experiments. Data reported are averages of at least 2 independent experiments.
For orientation: Bead proximity is the source of the signal in Alpha formats.

For the next test, the target named is T1, Full-length human MNK2 (Homo sapiens, UniProt Q9HBH9, T379D).
T1 construct: GST (N); purchased Carna Biosciences 02-146; host or cells: baculovirus expression system
T1 sequence (Q9HBH9 whole entry T379D): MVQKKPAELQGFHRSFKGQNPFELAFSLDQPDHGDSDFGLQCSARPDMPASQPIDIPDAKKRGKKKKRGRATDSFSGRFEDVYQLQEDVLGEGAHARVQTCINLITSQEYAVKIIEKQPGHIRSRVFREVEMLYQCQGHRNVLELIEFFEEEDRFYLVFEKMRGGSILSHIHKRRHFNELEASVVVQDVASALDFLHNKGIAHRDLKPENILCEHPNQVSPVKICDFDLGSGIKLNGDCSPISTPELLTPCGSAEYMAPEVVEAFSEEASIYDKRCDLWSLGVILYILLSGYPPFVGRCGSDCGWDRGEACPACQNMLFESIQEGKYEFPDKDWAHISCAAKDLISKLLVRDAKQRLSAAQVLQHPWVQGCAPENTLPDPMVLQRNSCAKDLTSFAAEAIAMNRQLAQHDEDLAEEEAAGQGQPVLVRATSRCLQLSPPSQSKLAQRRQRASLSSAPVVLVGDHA
The test is described as follows: MNK2 biochemical IC50 assay (Caliper Mobility Shift Assay). The conditions noted are these: read-out: P(IC50) MNK2 (converted). An excerpt: (§1) The phosphorylated peptide product and unphosphorylated peptide substrate were detected using a Caliper Mobility Shift Assay using the Caliper LabChip EZ Reader II.
(§2) The Caliper Mobility Shift Assay technology is based on the utilisation of a microfluidic chip to measure the conversion of a fluorescent non-phosphorylated peptide substrate to phosphorylated product by electrophoresis separation of substrate and product and detection via Laser-induced fluorescence. The LabChip EZ Reader software calculates the relative heights of substrate and product peaks and reports the peak ratio (Product peak(P) divided by the sum of Product peak(P) and Substrate peak(S)). The percent-conversion is calculated as 100×[(P/(P+S)]. All assays were set up to run in the linear phase with a maximum of 10 percent substrate conversion.
(§3) These were N-terminal GST fusion proteins expressed in baculovirus expression system and purified by glutathione sepharose affinity chromatography. […] All other assay reagents were sourced from Sigma.
(§4) The assay incubation times were adjusted depending on the concentration of ATP used. Assays were performed at low (50 uM) and high (1 mM) ATP. The low ATP values were selected to run at Km conditions for the standard assay to allow relative potencies to be compared across other kinases. The high ATP concentration was selected as representative of cellular ATP concentrations, and for an indication of ATP competition, where a significant shift (greater than half log) in apparent potency would be expected compared to Km conditions. All IC50 values reported are the average of at least two independent experiments.
Reactions were performed as above using 10 nM MNK2 in the assay. Standard assays contained 50 uM ATP and high concentration ATP assays contained 1 mM ATP. […] All other conditions were the same.

For another test, the target named is T2, Full-length human MNK1 (Homo sapiens, UniProt Q9BUB5, T385D).
T2 construct: GST (N); purchased Carna Biosciences 02-145; host or cells: baculovirus expression system
T2 sequence (Q9BUB5 1-424 isoform Q9BUB5-2 T344D): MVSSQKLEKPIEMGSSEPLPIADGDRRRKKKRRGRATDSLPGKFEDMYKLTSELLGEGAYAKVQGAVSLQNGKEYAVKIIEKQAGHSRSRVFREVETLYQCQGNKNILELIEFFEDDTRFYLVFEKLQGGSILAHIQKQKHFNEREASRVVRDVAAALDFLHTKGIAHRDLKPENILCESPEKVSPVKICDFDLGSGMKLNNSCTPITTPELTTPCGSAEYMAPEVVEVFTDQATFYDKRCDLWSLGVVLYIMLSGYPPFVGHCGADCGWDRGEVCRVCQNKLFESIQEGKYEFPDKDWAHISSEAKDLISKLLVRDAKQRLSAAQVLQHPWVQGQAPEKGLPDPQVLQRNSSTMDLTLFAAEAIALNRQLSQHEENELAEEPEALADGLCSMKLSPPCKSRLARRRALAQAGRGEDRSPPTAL
Put plainly: MNK1 biochemical IC50 assay (Caliper Mobility Shift Assay). The conditions noted are these: read-out: P(IC50) MNK1 (converted).
Text: as §1, §2, §3
Compounds were serially diluted in DMSO to generate a 10-point half log dilution curve with a final top concentration of 100 uM in the assay. […] Compounds were pre-incubated with enzyme and peptide in reaction buffer for 30 mins prior to addition of ATP to initiate the reaction. Final assay concentrations were 3 nM MNK1, 2 uM peptide substrate, 50 uM ATP, 50 mM Hepes pH 7.0, 0.01% BSA, 10 mM MgCl2, 1 mM dithiothrietol.
as §4

One may read the IC50 as the concentration that gives 50% inhibition. On to `CC1(C)CN(C(=O)c2nc3c(N4CCc5ccccc54)ncnc3s2)CCO1` [Example 102, (2,2-dimethylmorpholin-4-yl)-(7-indolin-1-ylthiazolo[5,4-d]pyrimidin-2-yl)methanone], for which the IC50 in test [1] is 631 nM; on Full-length human MNK2, 200 nM; on Full-length human MNK1 it was 158 nM.

On to `CNCCC1CN(c2ncnc3sc(C(=O)NC4CCOCC4)nc23)c2ccc(F)cc21` (stereo not drawn) [Example 147, 7-[5-fluoro-3-[2-(methyl-amino)ethyl]indolin-1-yl]-N-tetrahydropyran-4-yl-thiazolo[5,4-d]pyrimidine-2-carboxamide], for which the IC50 is 15.8 nM in test [1], 10 nM at Full-length human MNK2 and 7.94 nM on Full-length human MNK1.

Turning to `CCOc1cc(F)ccc1Nc1ncnc2sc(C(=O)NCC3CCNCC3)nc12` [Example 53, 7-(2-ethoxy-4-fluoro-anilino)-4-(4-piperidylmethyl)thiazolo[5,4-d]pyrimidine-2-carboxamide], the figures for the IC50 (in test [1]; on Full-length human MNK2; at Full-length human MNK1) were 126 nM, 126 nM and 100 nM, respectively.

For `CC(C)Oc1cc(F)ccc1Nc1ncnc2sc(C(=O)NC3CC4CCC(C3)N4C(=O)OC(C)(C)C)nc12` (stereo not drawn) [Example 6, tert-butyl 3-[[7-(4-fluoro-2-isopropoxy-anilino)thiazolo[5,4-d]pyrimidine-2-carbonyl]amino]-8-azabicyclo[3.2.1]octane-8-carboxylate], the half-inhibitory concentration (IC50) is 251 nM in test [1], 398 nM on Full-length human MNK2 and 794 nM at Full-length human MNK1.

With `O=C(NC1CCOCC1)c1nc2c(N3CCc4cc(C(F)(F)F)ccc43)ncnc2s1` [Example 112, N-(tetrahydro-2H-pyran-4-yl)-7-(5-(trifluoromethyl)indolin-1-yl)thiazolo[5,4-d]pyrimidine-2-carboxamide], the IC50 in test [1] is 316 nM; at Full-length human MNK2, 126 nM; at Full-length human MNK1, 200 nM.

Regarding `O=C(NCC1CCNCC1)c1nc2c(N3CCOc4cc(F)ccc43)ncnc2s1` [Example 56, 7-(7-fluoro-2,3-dihydro-1,4-benzoxazin-4-yl)-N-(4-piperidylmethyl)thiazolo[5,4-d]pyrimidine-2-carboxamide], the IC50 was 794 nM in test [1], 794 nM on Full-length human MNK2 and 1000 nM on Full-length human MNK1.

`CO[C@H]1CCC[C@@H](Oc2cc(F)ccc2Nc2ncnc3sc(C(=O)NCC4CCNCC4)nc23)C1` [Example 60, 7-[4-fluoro-2-[(1R,3S)-3-methoxycyclohexoxy]anilino]-N-(4-piperidylmethyl)thiazolo[5,4-d]pyrimidine-2-carboxamide]: the IC50 in test [1] is 631 nM; on Full-length human MNK2 it was 1000 nM; on Full-length human MNK1 it was 794 nM.

As for `O=C(NC1CCOCC1)c1nc2c(N3CC4(CC4)c4cc(F)ccc43)ncnc2s1` [Example 107, 7-(5′-fluorospiro[cyclopropane-1,3′-indoline]-1′-yl)-N-tetrahydropyran-4-yl-thiazolo[5,4-d]pyrimidine-2-carboxamide], the values for the IC50 (in test [1]; on Full-length human MNK2; on Full-length human MNK1) were 2 nM, 3.16 nM and 1.58 nM, respectively.

With `CNC(=O)c1nc2c(N3CCc4cc(C(F)(F)F)ccc43)ncnc2s1` [Example 158], the 50% inhibitory concentration (IC50) in test [1] is 501 nM; at Full-length human MNK2, 126 nM; on Full-length human MNK1, 316 nM.

`CC1(C)CN(c2ncnc3sc(C(=O)NCCCN4CCCC4)nc23)c2ccccc21` [Example 160]: the IC50 in test [1] is 7.94 nM; on Full-length human MNK2 it was 6.31 nM; at Full-length human MNK1, 6.31 nM.

As to `CN1CCN(C(=O)c2nc3c(N4CCc5ccccc54)ncnc3s2)CC1` [Example 96, (7-indolin-1-ylthiazolo[5,4-d]pyrimidin-2-yl)-(4-methylpiperazin-1-yl)methanone], the IC50 is 501 nM in test [1], 251 nM on Full-length human MNK2 and 398 nM at Full-length human MNK1.

Consider `CC(C)Oc1cc(F)ccc1Nc1ncnc2sc(C(=O)NCCCN(C)C)nc12` [Example 3, N-[3-(Dimethylamino)propyl]-7-(4-fluoro-2-isopropoxy-anilino)thiazolo[5,4-d]pyrimidine-2-carboxamide], for which the IC50 is 50.1 nM in test [1], 50.1 nM on Full-length human MNK2 and 63.1 nM at Full-length human MNK1.

For `CN1CCN(C(=O)c2nc3c(N4CCc5cc(F)ccc54)ncnc3s2)CC1` [Example 65, [7-(5-fluoroindolin-1-yl)thiazolo[5,4-d]pyrimidin-2-yl]-(4-methylpiperazin-1-yl)methanone], the IC50 in test [1] is 251 nM; at Full-length human MNK2, 79.4 nM; at Full-length human MNK1, 79.4 nM.

Regarding `CC1CN(c2ncnc3sc(C(=O)NC4CCN(C)CC4)nc23)c2ccccc21` (stereo not drawn) [Example 126, 7-(3-Methylindolin-1-yl)-N-(1-methyl-4-piperidyl)thiazolo[5,4-d]pyrimidine-2-carboxamide], the figures for the IC50 (in test [1]; at Full-length human MNK2; on Full-length human MNK1) were 3.98 nM, 6.31 nM and 3.98 nM, respectively.

`CC(C)(O)CC1CN(c2ncnc3sc(C(=O)NCC4CCNCC4)nc23)c2ccc(F)cc21` (stereo not drawn) [Example 143]: the IC50 in test [1] is 5.01 nM; on Full-length human MNK2, 6.31 nM; at Full-length human MNK1, 7.94 nM.

With `OCc1nc2c(N3CCc4cc(F)ccc43)ncnc2s1` [Example 81, [7-(5-Fluoroindolin-1-yl)thiazolo[5,4-d]pyrimidin-2-yl]methanol], the IC50 in test [1] was 100 nM; on Full-length human MNK2, 20 nM; on Full-length human MNK1 it was 39.8 nM.

As to `CC(C)Oc1cc(F)ccc1Nc1ncnc2sc(C(=O)NC3CC4CCC(C3)N4)nc12` (stereo not drawn) [Example 5, N-(8-azabicyclo[3.2.1]octan-3-yl)-7-(4-fluoro-2-isopropoxy-anilino)thiazolo[5,4-d]pyrimidine-2-carboxamide], the figures for the IC50 (in test [1]; at Full-length human MNK2; on Full-length human MNK1) were 100 nM, 79.4 nM and 158 nM, respectively.

On to `O=C(NC1CCOCC1)c1nc2c(N3CC(CCO)c4ccccc43)ncnc2s1` (stereo not drawn) [Example 110, 7-[3-(2-hydroxyethyl)indolin-1-yl]-N-tetrahydropyran-4-yl-thiazolo[5,4-d]pyrimidine-2-carboxamide], for which the IC50 (in test [1]; at Full-length human MNK2; at Full-length human MNK1) was 10 nM in each case.

For the molecule `O=C(NC1CCOCC1)c1nc2c(N3CCc4cc(F)ccc43)ncnc2s1` [Example 66, 7-(5-fluoroindolin-1-yl)-N-tetrahydropyran-4-yl-thiazolo[5,4-d]pyrimidine-2-carboxamide], the results for the IC50 (in test [1]; at Full-length human MNK2; on Full-length human MNK1) were 10 nM, 3.98 nM and 5.01 nM, respectively.

Take `CNCCCNC(=O)c1nc2c(N3CCc4cc(F)ccc43)ncnc2s1` [Example 72, 7-(5-fluoroindolin-1-yl)-N-[3-(methylamino)propyl]thiazolo[5,4-d]pyrimidine-2-carboxamide]: the IC50 (in test [1]; at Full-length human MNK2; at Full-length human MNK1) was 5.01 nM in each case.

Consider `O=C(NC1CCOC1)c1nc2c(N3CCc4cc(F)ccc43)ncnc2s1` (stereo not drawn) [Example 77, 7-(5-fluoroindolin-1-yl)-N-tetrahydrofuran-3-yl-thiazolo[5,4-d]pyrimidine-2-carboxamide], for which the IC50 in test [1] was 3.98 nM; on Full-length human MNK2 it was 2 nM; on Full-length human MNK1, 2 nM.

For `COCCCNC(=O)c1nc2c(N3CC(CCN)c4ccccc43)ncnc2s1` (stereo not drawn) [Example 166, 7-[3-(2-amino-ethyl)indolin-1-yl]-N-(3-methoxypropyl) thiazolo[5,4-d]pyrimidine-2-carboxamide], the values for the IC50 (in test [1]; on Full-length human MNK2; at Full-length human MNK1) were 3.98 nM, 5.01 nM and 5.01 nM, respectively.

As for `CN1CCN(CCC2CN(c3ncnc4sc(C(=O)NC5CCOCC5)nc34)c3ccc(F)cc32)CC1` (stereo not drawn) [Example 150, 7-[5-fluoro-3-[2-(4-methylpiperazin-1-yl)ethyl]indolin-1-yl]-N-tetrahydropyran-4-yl-thiazolo[5,4-d]pyrimidine-2-carboxamide], the figures for the IC50 (in test [1]; on Full-length human MNK2; on Full-length human MNK1) were 25.1 nM, 63.1 nM and 63.1 nM, respectively.

Source of the values: US10669284B2, “Fused thiazolopyrimidine derivatives as MNKS inhibitors” (LIFEARC, priority 2015, dated 2020).
